# Assay results: patent EP0915086A1, “PHENYLSULFONAMIDE DERIVATIVES” (ONO PHARMACEUTICAL CO., LTD., priority 1996, dated 1997)
# Counter-ions that a name gives are not always drawn.
# Molecular target: T1, collagenase (Homo sapiens, UniProt P03956)
# T1 construct: endogenous in cells; host or cells: human normal dermal fibroblasts (HNDF)
# T1 sequence (P03956 100-469): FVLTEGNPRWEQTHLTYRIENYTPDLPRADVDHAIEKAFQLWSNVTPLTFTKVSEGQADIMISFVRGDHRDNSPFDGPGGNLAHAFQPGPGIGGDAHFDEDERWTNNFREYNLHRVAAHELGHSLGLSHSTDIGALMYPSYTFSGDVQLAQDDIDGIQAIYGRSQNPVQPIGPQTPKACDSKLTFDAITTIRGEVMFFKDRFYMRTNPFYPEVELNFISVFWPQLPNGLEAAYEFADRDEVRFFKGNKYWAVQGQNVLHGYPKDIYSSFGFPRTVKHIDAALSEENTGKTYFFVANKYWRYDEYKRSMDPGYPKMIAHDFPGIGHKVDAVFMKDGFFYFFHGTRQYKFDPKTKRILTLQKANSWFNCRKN
# Assay: Inhibitory activity against collagenase
# Format: biochemical
# Details: procollagenase from human normal dermal fibroblasts (HNDF), activated with trypsin; substrate Ac-Pro-Leu-Gly-[2-mercapto-4-methyl-pentanoyl]-Leu-Gly-OEt; 26 °C, 10 minutes; absorption at 324 nm
# Procedure: Trypsin (45 µl; 1 mg/ml) was added to a solution of procollagenase (5 µM) purified from human normal dermal fibloblasts (HNDF) in assay buffer (105 µl). The solution was preincubated in order to activate the enzyme at 37°C for 1 minute.
# Trypsin was inactivated by addition of soybean trypsin inhibitor (SBTI; 50 µl). Solutions (20 µl) of synthetic substrate (Ac-Pro-Leu-Gly-[2-mercapto-4-methyl-pentanoyl]-Leu-Gly-OEt) (105 µl; the final concentration […]) with or without various concentrations of the test compound were preincubated for 5 minutes at 26 °C.
# To the solutions, activated enzyme (75 µl/tube, 50 µl) prepared above was added. The mixtures were incubated at 26 °C for 10 minutes.
# Absorption at 324 nm was measured at 40 points during the 10 minutes.
# Vmax value was determined as measured value in 30 points therein.
row,Compound,IC50
1,"CC#Cc1ccc(S(=O)(=O)N(C)[C@H](C)C(=O)NO)cc1 [Example 10(13), N-Hydroxy-[N-methyl-N-[4-(1-propynyl)phenylsulfonyl]-D-alanyl]amide]",290 nM
2,"C#Cc1ccc(S(=O)(=O)N[C@H](CCC(=O)NC(Cc2ccccc2)c2ccccc2)C(=O)NO)cc1 (stereo partly drawn) [Example 6(19), N-Hydroxy-[N-(4-ethynyl)phenylsulfonyl-N'-(1,2-diphenylethyl)-D-glutaminyl]amide]",65 nM
3,"C#Cc1ccc(S(=O)(=O)N[C@H](CCC(=O)NCCc2ccccc2)C(=O)NO)cc1 [Example 6(17), N-Hydroxy-[N-(4-ethynyl)phenylsulfonyl-N'-(2-phenylethyl)-D-glutaminyl]amide]",63 nM

# Molecular target: T2, gelatinase A (Homo sapiens, UniProt P08253)
# T2 construct: endogenous in cells; host or cells: human normal skin dermal fibroblasts (HNDF)
# T2 sequence (P08253 110-660): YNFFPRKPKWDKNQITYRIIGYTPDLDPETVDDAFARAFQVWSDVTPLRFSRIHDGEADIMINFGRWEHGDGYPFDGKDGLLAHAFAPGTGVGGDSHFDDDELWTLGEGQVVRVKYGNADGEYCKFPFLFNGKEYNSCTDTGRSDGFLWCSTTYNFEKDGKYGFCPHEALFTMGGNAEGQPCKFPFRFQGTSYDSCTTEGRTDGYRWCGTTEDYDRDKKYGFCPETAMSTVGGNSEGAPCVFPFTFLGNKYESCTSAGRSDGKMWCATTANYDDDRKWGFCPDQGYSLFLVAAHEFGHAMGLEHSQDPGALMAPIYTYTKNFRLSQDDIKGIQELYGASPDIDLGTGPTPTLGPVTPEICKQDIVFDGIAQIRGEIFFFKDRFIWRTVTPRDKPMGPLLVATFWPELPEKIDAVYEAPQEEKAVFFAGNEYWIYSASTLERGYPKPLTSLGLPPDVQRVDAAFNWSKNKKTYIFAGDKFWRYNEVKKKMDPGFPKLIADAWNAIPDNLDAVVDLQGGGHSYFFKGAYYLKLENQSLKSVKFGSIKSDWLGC
# Assay: Inhibitory activity against gelatinase A
# Format: biochemical
# Details: progelatinase A from human normal skin dermal fibroblasts (HNDF), activated with APMA; substrate MOCAc-Pro-Leu-Gly-A2pr(Dnp)-Ala-Arg-NH2; 37 °C, 20 minutes; fluorescence Ex 328 nm, Em 393 nm
# Procedure: Progelatinase A (7 µl; in assay buffer (90 µl)) was purified from human normal skin dermal fibroblasts (HNDF). It was activated by addition of 10 mM p-aminophenyl mercuric acetate (APMA) (10 µl) and preincubation at 37 °C for 1 hour. The solution (890 µl; the final concentration was […]) of the synthetic substrates (MOCAc-Pro-Leu-Gly-A2pr(Dnp)-Ala-Arg-NH2) was mixed with various concentrations of the test compound or a solution without it (10 µl) and the mixture was preincubated at 37 °C for 5 minutes. The activated gelaninase A prepared above (7 µl/tube, 100 µl) was added to the reaction mixture and further incubated at 37 °C for 20 minutes. The enzyme reaction was terminated by addition of 0.1 M sodium acetate buffer (2ml; pH 4.0).
# The IC50 value was determined by measuring the fluorescent intensity (Ex = 328 nm, and Em = 393 nm) in this solution.
row,Compound,IC50
1,"Cc1ccc(C#Cc2ccc(S(=O)(=O)N(C)[C@H](C)C(=O)NO)cc2)cc1 [Example 10, N-Hydroxy-[N-methyl-N-[4-[2-(4-methylphenyl)ethynyl]phenylsulfonyl]-D-alanyl]amide]",7.5 nM
2,"O=C(O)[C@@H](Cc1c[nH]c2ccccc12)NS(=O)(=O)c1ccc(C#Cc2ccc(-n3ccnc3)cc2)cc1 [Example 2(18), N-[4-[2-(4-Imidazolylphenyl)ethynyl]phenylsulfonyl]-D-tryptophan]",11 nM
3,"Cc1ccc(C#Cc2ccc(S(=O)(=O)N[C@H](C)C(=O)NO)cc2)cc1 [Example 6(4), N-Hydroxy-[N-[4-[2-(4-methylphenyl)ethynyl]phenylsulfonyl]-D-alanyl]amide]",0.7 nM
4,"CCCCCC#Cc1ccc(S(=O)(=O)N[C@H](C)C(=O)NO)cc1 [Example 6(11), N-Hydroxy-[N-[4-[4-(1-heptynyl)]phenylsulfonyl]-D-alanyl]amide]",2.4 nM
5,"Cc1ccc(/C=C/c2ccc(S(=O)(=O)N[C@H](C)C(=O)NO)cc2)cc1 [Example 6(2), N-Hydroxy-[N-[4-[2-(4-methylphenyl)ethenyl]phenylsulfonyl]-D-alanyl]amide]",0.2 nM
6,"Cc1ccc(C#Cc2ccc(S(=O)(=O)N[C@H](Cc3c[nH]c4ccccc34)C(=O)O)cc2)cc1 [Example 2(4), N-[4-[2-(4-Methylphenyl)ethynyl]phenylsulfonyl]-D-tryptophan]",6.5 nM
7,"CCCC#Cc1ccc(S(=O)(=O)N[C@H](C)C(=O)NO)cc1 [Example 6(1), N-Hydroxy-[N-[4-(1-pentynyl)phenylsulfonyl]-D-alanyl]amide]",1.2 nM
8,"Cc1ccc(C=Cc2ccc(S(=O)(=O)N[C@H](C)C(=O)O)cc2)cc1 (stereo in doubt) [Example 3(1), N-[4-[2-(4-Methylphenyl)ethenyl]phenylsulfonyl]-D-alanine]",6.2 nM
9,"Cc1ccc(C#Cc2ccc(S(=O)(=O)N[C@H](C)C(=O)O)cc2)cc1 [Example 2(1), N-[4-[2-(4-Methylphenyl)ethynyl]phenylsulfonyl]-D-alanine]",13 nM
10,"C#Cc1ccc(S(=O)(=O)N[C@H](CCC(=O)NCCc2ccccc2)C(=O)NO)cc1 [Example 6(17), N-Hydroxy-[N-(4-ethynyl)phenylsulfonyl-N'-(2-phenylethyl)-D-glutaminyl]amide]",0.8 nM
11,CCCC#Cc1ccc(S(=O)(=O)N(C)[C@H](C)C(=O)NO)cc1 [Example 10(4)],0.7 nM
12,"CN(CCc1ccccc1)C(=O)CC[C@@H](NS(=O)(=O)c1ccc(C#Cc2ccc(-n3ccnc3)cc2)cc1)C(=O)O [Example 2(27), N-[4-[2-(4-Imidazolylphenyl)ethynyl]phenylsulfonyl]-N'-methyl-N'-(2-phenylethyl)-D-glutamine]",3.3 nM
13,"C[C@H](C(=O)NO)N(C)S(=O)(=O)c1ccc(C#Cc2ccc(-n3ccnc3)cc2)cc1 [Example 10(3), N-Hydroxy-[N-methyl-N-[4-[2-[4-(1-imidazolyl)phenyl]ethynyl]phenylsulfonyl]-D-alanyl]amide hydrochloride]",0.4 nM
